Counter-ions that a name gives are not always drawn.
Biological target: T1, recombinant human GSK3β (Homo sapiens, UniProt P49841)
T1 construct: purchased Dundee University, UK
Assay: GSK3β Scintillation Proximity Assay (ATP competition)
Assay type: biochemical
Settings: SPA, 1 μM ATP, Km of ATP 20 μM used to calculate Ki
Protocol: Determination of ATP Competition in Scintillation Proximity GSK3β Assay.
GSK3β Scintillation Proximity Assay.
The competition experiments were carried out in duplicate with 10 different concentrations of the inhibitors in clear-bottom microtiter plates (Wallac, Finland). A biotinylated peptide substrate, Biotin-Ala-Ala-Glu-Glu-Leu-Asp-Ser-Arg-Ala-Gly-Ser(PO3H2)-Pro-Gln-Leu (AstraZeneca, Lund), was added at a final concentration of 1 μM in an assay buffer containing 1 mU recombinant human GSK3β (Dundee University, UK), 12 mM morpholinepropanesulfonic acid (MOPS), pH 7.0, 0.3 mM EDTA, 0.01% β-mercaptorethanol, 0.004% Brij 35 (a […] detergent), 0.5% glycerol and 0.5 μg BSA/25 μl. The reaction was initiated by the addition of 0.04 μCi [γ-^33P]ATP (Amersham, UK) and unlabelled ATP at a final concentration of 1 μM and assay volume of 25 μL. After incubation for 20 minutes at room temperature, each reaction was terminated by the addition of 25 μl stop solution containing 5 mM EDTA, 50 μM ATP, 0.1% Triton X-100 and 0.25 mg streptavidin coated Scintillation Proximity Assay (SPA) beads (Amersham, UK). After 6 hours the radioactivity was determined in a liquid scintillation counter (1450 MicroBeta Trilux, Wallac). The inhibition curves were analysed by non-linear regression using GraphPad Prism, USA. The Km value of ATP for GSK3β, used to calculate the inhibition constants (Ki) of the various compounds, was 20 μM.

T1 sequence (P49841 whole entry): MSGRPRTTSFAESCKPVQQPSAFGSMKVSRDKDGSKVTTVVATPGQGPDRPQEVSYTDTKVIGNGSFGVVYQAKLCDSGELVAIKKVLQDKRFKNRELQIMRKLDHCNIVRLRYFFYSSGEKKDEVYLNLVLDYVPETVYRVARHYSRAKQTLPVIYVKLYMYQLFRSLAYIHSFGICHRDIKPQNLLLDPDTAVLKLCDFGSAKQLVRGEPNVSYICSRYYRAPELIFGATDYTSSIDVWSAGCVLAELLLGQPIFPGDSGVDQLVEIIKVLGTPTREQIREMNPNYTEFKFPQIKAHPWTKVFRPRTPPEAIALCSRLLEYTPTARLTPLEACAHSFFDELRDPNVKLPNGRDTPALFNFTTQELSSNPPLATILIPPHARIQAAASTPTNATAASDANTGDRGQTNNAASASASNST

Ki	SMILES
3.8 nM	Cc1ncc(-c2nc(Nc3ccc(C(=O)N4CCN(C)CC4)cc3)ncc2F)n1C(C)C [Example 13, 5-Fluoro-4-(1-isopropyl-2-methyl-1H-imidazol-5-yl)-N-{4-[(4-methylpiperazin-1-yl)carbonyl]phenyl}pyrimidin-2-amine hydrochloride]
1.3 nM	Cc1ncc(-c2nc(Nc3ccc(C(=O)c4ccccn4)cc3)ncc2F)n1C(C)C [Example 2, (4-{[5-Fluoro-4-(1-isopropyl-2-methyl-1H-imidazol-5-yl)pyrimidin-2-yl]amino}phenyl)(pyridin-2-yl)methanone hydrochloride]
24 nM	Cc1cc(S(=O)(=O)N2CCN(C)CC2)ccc1Nc1ncc(F)c(-c2cnc(C)n2C(C)C)n1 [Example 5, 5-Fluoro-4-(1-isopropyl-2-methyl-1H-imidazol-5-yl)-N-{2-methyl-4-[(4-methylpiperazin-1-yl)sulfonyl]phenyl}pyrimidin-2-amine hydrochloride]
25 nM	COc1cc(Nc2ncc(F)c(-c3cnc(C)n3C(C)C)n2)ccc1C(=O)N1CCN(C)CC1 [Example 11, 5-Fluoro-4-(1-isopropyl-2-methyl-1H-imidazol-5-yl)-N-{3-methoxy-4-[(4-methylpiperazin-1-yl)carbonyl]phenyl}pyrimidin-2-amine hydrochloride]
